{
  "source": "patent US20240308973A1",
  "about": "“PHOSPHODIESTERASE 3 (PDE3) INHIBITORS” (Zoetis Services LLC, priority 2023, published 2024)",
  "target": "dog PDE3A recombinant enzyme (Canis lupus familiaris, UniProt A0A8I3NYE0)",
  "sequence (A0A8I3NYE0 1-1135)": "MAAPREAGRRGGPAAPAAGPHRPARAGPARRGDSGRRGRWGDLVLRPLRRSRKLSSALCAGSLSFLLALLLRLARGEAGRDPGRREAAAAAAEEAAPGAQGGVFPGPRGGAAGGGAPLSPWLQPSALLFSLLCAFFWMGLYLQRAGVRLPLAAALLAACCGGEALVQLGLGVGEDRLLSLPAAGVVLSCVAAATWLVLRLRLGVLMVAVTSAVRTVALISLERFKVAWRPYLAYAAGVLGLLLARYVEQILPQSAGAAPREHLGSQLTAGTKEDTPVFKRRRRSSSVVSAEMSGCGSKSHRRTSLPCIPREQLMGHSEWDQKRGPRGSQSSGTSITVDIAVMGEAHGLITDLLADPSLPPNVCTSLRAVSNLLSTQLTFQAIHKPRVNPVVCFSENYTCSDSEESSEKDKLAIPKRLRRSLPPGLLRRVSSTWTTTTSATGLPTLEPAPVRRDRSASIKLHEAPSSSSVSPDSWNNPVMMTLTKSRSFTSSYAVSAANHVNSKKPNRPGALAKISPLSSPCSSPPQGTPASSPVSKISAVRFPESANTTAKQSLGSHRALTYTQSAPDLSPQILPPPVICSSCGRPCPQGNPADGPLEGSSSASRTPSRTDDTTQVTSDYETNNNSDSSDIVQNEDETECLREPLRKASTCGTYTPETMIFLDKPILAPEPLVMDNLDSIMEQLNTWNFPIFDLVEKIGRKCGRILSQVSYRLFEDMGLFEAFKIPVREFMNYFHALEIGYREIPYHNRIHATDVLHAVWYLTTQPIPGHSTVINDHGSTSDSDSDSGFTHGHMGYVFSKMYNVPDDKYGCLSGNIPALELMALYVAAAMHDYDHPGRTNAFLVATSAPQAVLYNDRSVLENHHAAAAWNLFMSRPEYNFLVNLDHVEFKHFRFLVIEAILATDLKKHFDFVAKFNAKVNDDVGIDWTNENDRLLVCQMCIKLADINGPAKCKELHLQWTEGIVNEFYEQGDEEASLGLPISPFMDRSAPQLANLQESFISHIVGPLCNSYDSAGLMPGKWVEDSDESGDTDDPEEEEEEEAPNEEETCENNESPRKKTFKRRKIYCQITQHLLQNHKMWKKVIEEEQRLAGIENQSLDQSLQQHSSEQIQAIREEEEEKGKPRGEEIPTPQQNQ",
  "experiment": "cPDE3A assay (fluorescent polarization)",
  "assay_type": "biochemical",
  "details": "canine PDE3A, read-out: cPDE3 Inhibition (IC50)",
  "experimental": "cPDE3A Assay (Fluorescent Polarization)\nThe canine PDE3A assay kit was purchased from BPS Bioscience (San Diego, CA) which included dog PDE3A recombinant enzyme, FAM-cyclic-3′,5′-AMP (20 μM), PDE3 assay buffer, binding agent, binding agent diluent and microtiter 96-well plates. Compounds were initially dissolved in DMSO. The stock concentration was subsequently diluted in cPDE assay buffer (10× stock) and serially diluted to give a concentration response curve starting at 10 μM (≥7 total concentrations). Following the serial dilution, compound solution (0.1% final DMSO) was transferred to an assay plate (96-well) where the remaining canine PDE3A assay reagents were dispensed according to the BPS Bioscience® protocol (catalog #79735) procedure using a final concentration of 5 pg/μL of enzyme. Each compound was evaluated for the inhibition of the canine PDE3A enzyme activity using the measurement of fluorescent polarization changes. The 50% inhibition concentration (IC50) nM was calculated and reported.",
  "note": "pIC50: −log10 of the molar value.",
  "data": [
    {"smiles": "COc1cc(-c2cc(C3=NNC(=O)CC3C)cc3c2NC(=O)CC3)ccn1", "note": "(centres unmarked) [Example #1, 8-(2-methoxypyridin-4-yl)-6-(4-methyl-6-oxo-1,4,5,6-tetrahydropyridazin-3-yl)-3,4-dihydroquinolin-2 (1H)-one]", "values": [
      {"measurement": "pIC50", "result": 7.53}
    ]},
    {"smiles": "CC1CC(=O)NN=C1c1cc2c(c(-c3nccs3)c1)NC(=O)CC2", "note": "(centres unmarked) [Example #2, 6-(4-methyl-6-oxo-1,4,5,6-tetrahydropyridazin-3-yl)-8-(thiazol-2-yl)-3,4-dihydroquinolin-2 (1H)-one]", "values": [
      {"measurement": "pIC50", "result": 7.63}
    ]},
    {"smiles": "CC1CC(=O)NN=C1c1cc(Br)c2c(c1)CCC(=O)N2", "note": "(centres unmarked) [Example #3, 8-bromo-6-(4-methyl-6-oxo-1,4,5,6-tetrahydropyridazin-3-yl)-3,4-dihydroquinolin-2 (1H)-one]", "values": [
      {"measurement": "pIC50", "result": 8.49}
    ]},
    {"smiles": "COc1ncc(-c2cc(C3=NNC(=O)CC3C)cc3c2NC(=O)CC3)s1", "note": "(centres unmarked) [Example #4, 8-(2-methoxythiazol-5-yl)-6-(4-methyl-6-oxo-1,4,5,6-tetrahydropyridazin-3-yl)-3,4-dihydroquinolin-2 (1H)-one]", "values": [
      {"measurement": "pIC50", "result": 7.61}
    ]},
    {"smiles": "CC1CC(=O)NN=C1c1ccc2nc(Nc3ccc(S(C)(=O)=O)cc3)n(C)c2c1", "note": "(centres unmarked) [Example #5, 5-methyl-6-(1-methyl-2-((4-(methylsulfonyl)phenyl)amino)-1H-benzo[d]imidazol-6-yl)-4,5-dihydropyridazin-3 (2H)-one]", "values": [
      {"measurement": "pIC50", "result": 8.31}
    ]},
    {"smiles": "O=C1Cc2cc(-c3ccc(=O)[nH]n3)cc(-c3ccc(Cl)cc3)c2N1", "note": "[Example #7, 7-(4-chlorophenyl)-5-(6-oxo-1,6-dihydropyridazin-3-yl)indolin-2-one]", "values": [
      {"measurement": "pIC50", "result": 7.39}
    ]},
    {"smiles": "CC1CC(=O)NN=C1c1cc(Cl)c2c(c1)C1(CC1)C(=O)N2", "note": "(centres unmarked) [Example #8, 7′-chloro-5′-(4-methyl-6-oxo-1,4,5,6-tetrahydropyridazin-3-yl)spiro[cyclopropane-1,3′-indolin]-2′-one]", "values": [
      {"measurement": "pIC50", "result": 8.41}
    ]},
    {"smiles": "O=C1CCc2cc(-c3ccc(=O)[nH]n3)cc(-c3ccc(Cl)cc3)c2N1", "note": "[Example #9, 8-(4-chlorophenyl)-6-(6-oxo-1,6-dihydropyridazin-3-yl)-3,4-dihydroquinolin-2 (1H)-one]", "values": [
      {"measurement": "pIC50", "result": 7.87}
    ]},
    {"smiles": "CC1CC(=O)NN=C1c1cc2c(c(-c3cccnc3)c1)NC(=O)CC2", "note": "(centres unmarked) [Example #13, 6-(4-methyl-6-oxo-1,4,5,6-tetrahydropyridazin-3-yl)-8-(pyridin-3-yl)-3,4-dihydroquinolin-2 (1H)-one]", "values": [
      {"measurement": "pIC50", "result": 7.35}
    ]},
    {"smiles": "Cc1cc(=O)[nH]nc1-c1cc(-c2cscn2)c2c(c1)C(C)(C)C(=O)N2", "note": "[Example #17, 3,3-dimethyl-5-(4-methyl-6-oxo-1,6-dihydropyridazin-3-yl)-7-(thiazol-4-yl)indolin-2-one]", "values": [
      {"measurement": "pIC50", "result": 7.20}
    ]},
    {"smiles": "COc1ccc(-c2cc(C3=NNC(=O)CC3C)cc3c2NC(=O)CCC3)cn1", "note": "(centres unmarked) [Example #18, 9-(6-methoxypyridin-3-yl)-7-(4-methyl-6-oxo-1,4,5,6-tetrahydropyridazin-3-yl)-1,3,4,5-tetrahydro-2H-benzo[b]azepin-2-one]", "values": [
      {"measurement": "pIC50", "result": 7.38}
    ]},
    {"smiles": "CC1(C)C(=O)Nc2c(F)cc(-c3ccc(=O)[nH]n3)cc21", "note": "[Example #27, 7-fluoro-3,3-dimethyl-5-(6-oxo-1,6-dihydropyridazin-3-yl)indolin-2-one]", "values": [
      {"measurement": "pIC50", "result": 7.42}
    ]},
    {"smiles": "CC1CC(=O)NN=C1c1cc(Cl)c2nc(N)sc2c1", "note": "(centres unmarked) [Example #30, 6-(2-amino-4-chlorobenzo[d]thiazol-6-yl)-5-methyl-4,5-dihydropyridazin-3 (2H)-one]", "values": [
      {"measurement": "pIC50", "result": 8.40}
    ]},
    {"smiles": "CC1CC(=O)NN=C1c1cc(F)c2nc(N)sc2c1", "note": "(centres unmarked) [Example #31, 6-(2-amino-4-fluorobenzo[d]thiazol-6-yl)-5-methyl-4,5-dihydropyridazin-3 (2H)-one]", "values": [
      {"measurement": "pIC50", "result": 8.26}
    ]},
    {"smiles": "CC1(C)C(=O)Nc2c(Br)cc(-c3ccc(=O)[nH]n3)cc21", "note": "[Example #32, 7-bromo-3,3-dimethyl-5-(6-oxo-1,6-dihydropyridazin-3-yl)indolin-2-one]", "values": [
      {"measurement": "pIC50", "result": 7.57}
    ]},
    {"smiles": "C[C@@H]1CC(=O)NN=C1c1cc(Cl)c2c(c1)C(C)(C)C(=O)N2", "note": "[Example #33, (R)-7-chloro-3,3-dimethyl-5-(4-methyl-6-oxo-1,4,5,6-tetrahydropyridazin-3-yl)indolin-2-one]", "values": [
      {"measurement": "pIC50", "result": 8.49}
    ]},
    {"smiles": "CNc1nc2c(F)cc(C3=NNC(=O)CC3C)cc2s1", "note": "(centres unmarked) [Example #34, 6-(4-fluoro-2-(methylamino)benzo[d]thiazol-6-yl)-5-methyl-4,5-dihydropyridazin-3 (2H)-one]", "values": [
      {"measurement": "pIC50", "result": 8.43}
    ]},
    {"smiles": "CC1CC(=O)NN=C1c1cc(Cl)c2[nH]c(=O)ccc2c1", "note": "(centres unmarked) [Example #35, 8-chloro-6-(4-methyl-6-oxo-1,4,5,6-tetrahydropyridazin-3-yl)quinolin-2 (1H)-one]", "values": [
      {"measurement": "pIC50", "result": 8.49}
    ]},
    {"smiles": "CC1CC(=O)NN=C1c1cc2c(c(Cl)c1F)NC(=O)C2(C)C", "note": "(centres unmarked) [Example #36, 7-chloro-6-fluoro-3,3-dimethyl-5-(4-methyl-6-oxo-1,4,5,6-tetrahydropyridazin-3-yl)indolin-2-one]", "values": [
      {"measurement": "pIC50", "result": 8.44}
    ]},
    {"smiles": "CC1CC(=O)NN=C1c1cc(F)c2nc(N3CC(O)C3)sc2c1", "note": "(centres unmarked) [Example #37, 6-(4-fluoro-2-(3-hydroxyazetidin-1-yl)benzo[d]thiazol-6-yl)-5-methyl-4,5-dihydropyridazin-3 (2H)-one]", "values": [
      {"measurement": "pIC50", "result": 8.21}
    ]},
    {"smiles": "CC1CC(=O)NN=C1c1cc(C#N)c2nc(N)sc2c1", "note": "(centres unmarked) [Example #38, 2-amino-6-(4-methyl-6-oxo-1,4,5,6-tetrahydropyridazin-3-yl)benzo[d]thiazole-4-carbonitrile]", "values": [
      {"measurement": "pIC50", "result": 8.13}
    ]},
    {"smiles": "CC1CC(=O)NN=C1c1cc(Cl)c2c(c1)CNC2=O", "note": "(centres unmarked) [Example #39, 7-chloro-5-(4-methyl-6-oxo-1,4,5,6-tetrahydropyridazin-3-yl)isoindolin-1-one]", "values": [
      {"measurement": "pIC50", "result": 7.98}
    ]},
    {"smiles": "CC1CC(=O)NN=C1c1cc(C#N)c2[nH]c(=O)ccc2c1", "note": "(centres unmarked) [Example #40, 6-(4-methyl-6-oxo-1,4,5,6-tetrahydropyridazin-3-yl)-2-oxo-1,2-dihydroquinoline-8-carbonitrile]", "values": [
      {"measurement": "pIC50", "result": 7.92}
    ]},
    {"smiles": "CC1CC(=O)NN=C1c1cc(Cl)c2c(c1)C(C)(C)NC2=O", "note": "(centres unmarked) [Example #41, 7-chloro-3,3-dimethyl-5-(4-methyl-6-oxo-1,4,5,6-tetrahydropyridazin-3-yl)isoindolin-1-one]", "values": [
      {"measurement": "pIC50", "result": 7.81}
    ]},
    {"smiles": "CC1CC(=O)NN=C1c1cc(Cl)c2[nH]c(=O)n(C)c2c1", "note": "(centres unmarked) [Example #42, 4-chloro-1-methyl-6-(4-methyl-6-oxo-1,4,5,6-tetrahydropyridazin-3-yl)-1,3-dihydro-2H-benzo[d]imidazol-2-one]", "values": [
      {"measurement": "pIC50", "result": 7.79}
    ]},
    {"smiles": "CC1CC(=O)NN=C1c1cc(F)c2c(c1)C1(CCC1)C(=O)N2", "note": "(centres unmarked) [Example #43, 7′-fluoro-5′-(4-methyl-6-oxo-1,4,5,6-tetrahydropyridazin-3-yl)spiro[cyclobutane-1,3′-indolin]-2′-one]", "values": [
      {"measurement": "pIC50", "result": 7.45}
    ]},
    {"smiles": "CC1(C)C(=O)Nc2c(Cl)cc(C3=NNC(=O)CC3)cc21", "note": "[Example #44, 7-chloro-3,3-dimethyl-5-(6-oxo-1,4,5,6-tetrahydropyridazin-3-yl)indolin-2-one]", "values": [
      {"measurement": "pIC50", "result": 7.03}
    ]},
    {"smiles": "CC1CC(=O)NN=C1c1cc(F)c2nc(NCc3cnn(C)c3)sc2c1", "note": "(centres unmarked) [Example #46, 6-(4-fluoro-2-(((1-methyl-1H-pyrazol-4-yl)methyl)amino)benzo[d]thiazol-6-yl)-5-methyl-4,5-dihydropyridazin-3 (2H)-one]", "values": [
      {"measurement": "pIC50", "result": 8.47}
    ]},
    {"smiles": "Cc1n[nH]c2c(Cl)cc(C3=NNC(=O)CC3C)cc12", "note": "(centres unmarked) [Example #47, 6-(7-chloro-3-methyl-1H-indazol-5-yl)-5-methyl-4,5-dihydropyridazin-3 (2H)-one]", "values": [
      {"measurement": "pIC50", "result": 8.40}
    ]},
    {"smiles": "CC1CC(=O)NN=C1c1cc(F)c2c(c1)CC(=O)N2", "note": "(centres unmarked) [Example #50, 7-fluoro-5-(4-methyl-6-oxo-1,4,5,6-tetrahydropyridazin-3-yl)indolin-2-one]", "values": [
      {"measurement": "pIC50", "result": 8.31}
    ]},
    {"smiles": "C[C@H]1CC(=O)NN=C1c1cc(Cl)c2c(c1)C(C)(C)NC2=O", "note": "[Example #51, (S)-7-chloro-3,3-dimethyl-5-(4-methyl-6-oxo-1,4,5,6-tetrahydropyridazin-3-yl)isoindolin-2-one]", "values": [
      {"measurement": "pIC50", "result": 6.47}
    ]},
    {"smiles": "CC1SC(=O)NN=C1c1cc2c(c(-c3ccc(S(C)(=O)=O)cc3)c1)NC(=O)C2", "note": "(centres unmarked) [Example #63, 6-methyl-5-(7-(4-(methylsulfonyl)phenyl)-2-oxoindolin-5-yl)-3,6-dihydro-2H-1,3,4-thiadiazin-2-one]", "values": [
      {"measurement": "pIC50", "result": 7.52}
    ]},
    {"smiles": "CC1SC(=O)NN=C1c1cc(Br)c2c(c1)CCC(=O)N2", "note": "(centres unmarked) [Example #65, 5-(8-bromo-2-oxo-1,2,3,4-tetrahydroquinolin-6-yl)-6-methyl-3,6-dihydro-2H-1,3,4-thiadiazin-2-one]", "values": [
      {"measurement": "pIC50", "result": 8.37}
    ]},
    {"smiles": "C[C@H]1SC(=O)NN=C1c1cc(Cl)c2c(c1)C(C)(C)CC(=O)N2", "note": "[Example #67, (6R)-5-(8-chloro-4,4-dimethyl-2-oxo-1,2,3,4-tetrahydroquinolin-6-yl)-6-methyl-3,6-dihydro-2H-1,3,4-thiadiazin-2-one]", "values": [
      {"measurement": "pIC50", "result": 7.32}
    ]},
    {"smiles": "CC1SC(=O)NN=C1c1cc(C#N)c2c(c1)CC(=O)N2", "note": "(centres unmarked) [Example #77, 5-(6-methyl-2-oxo-3,6-dihydro-2H-1,3,4-thiadiazin-5-yl)-2-oxoindoline-7-carbonitrile]", "values": [
      {"measurement": "pIC50", "result": 7.38}
    ]},
    {"smiles": "C[C@@H]1SC(=O)NN=C1c1cc(F)c2c(c1)CC(=O)N2", "note": "[Example #78, (S)-5-(7-fluoro-2-oxoindolin-5-yl)-6-methyl-3,6-dihydro-2H-1,3,4-thiadiazin-2-one]", "values": [
      {"measurement": "pIC50", "result": 8.11}
    ]},
    {"smiles": "CC1SC(=O)NN=C1c1cc(Cl)c2c(c1)CNC2=O", "note": "(centres unmarked) [Example #79, 5-(7-chloro-1-oxoisoindolin-5-yl)-6-methyl-3,6-dihydro-2H-1,3,4-thiadiazin-2-one]", "values": [
      {"measurement": "pIC50", "result": 7.69}
    ]},
    {"smiles": "CC1SC(=O)NN=C1c1cc(Cl)c2c(c1)C(C)(C)NC2=O", "note": "(centres unmarked) [Example #80, 5-(7-chloro-3,3-dimethyl-1-oxoisoindolin-5-yl)-6-methyl-3,6-dihydro-2H-1,3,4-thiadiazin-2-one]", "values": [
      {"measurement": "pIC50", "result": 7.69}
    ]}
  ]
}
